From patent US3979508A, “Compositions and methods therewith for penicillin hypersensitivity detection” (Kremers-Urban Company, priority 1975, dated 1976)
Several values for one entry are separate records, joined by “and”; a condition that tells them apart may be missing. Identical values can stand only once.

How the values were obtained:
[1] = tested on: penicillin hypersensitivity (patients); test: Comparison of skin tests with penicilloyl-poly-L-lysine and penicillin G (Table III); format: in vivo, human; conditions: 1163 tested
Description: One of the uses for the conjugates of this invention is in skin testing for penicillin hypersensitivity. The conjugated compositions are prepared for skin testing by first dissolving the composition in buffered isotonic solutions, having a pH in the range from 7 to 8. For example, the conjugates prepared above may be diluted with aqueous solutions 0.15 M NaCl in 0.01 M phosphate, pH 7.6. In addition, other physiological salt solutions may be used.
Intradermal injections may be made of the foregoing solutions with a 26 guage needle, the volume injected may be generally about 0.01 to 0.03 cc. Alternatively, the conjugate may be applied by the scratch test technique. The development of a wheal at the injection site after about 20 minutes indicates a positive reaction, and penicillin hypersensitivity.
Penicillin hypersensitivity tests carried out with the conjugate compositions of this invention reflect the numerous advantages of penicillin hypersensitivity determinations made with such compositions. […] In Table II the distribution of skin reactions is shown by history of penicillin therapy and hypersensitivity. […] (See column 2, for example, showing the percentages of patients tested who had […] skin test.)

[2] = tested on: penicillin hypersensitivity (patients); test: Clinical evaluation by 26 investigators: scratch/intradermal skin tests with PPL and Penicillin G (Tables IV-VII, IX-XI); format: in vivo, human; conditions: for TOTAL (+) No. / TOTAL (+) Percent of total positive: skin reactive penicillin allergy patients
Description: Twenty-six clinical investigators contributed a total of 1160 cases to the evaluation. Patients were tested according to a protocol as follows:
1. All patients being subjected to allergy investigation were to be tested for penicillin hypersensitivity. Two preparations were to be used. These are:
2. Penicillin G (Benzyl Penicillin) in a concentration of 10,000 units per cc.
For maximum safety, it was recommended that the tests first be done by the scratch technique. Intradermal tests were then to be done on those showing negative scratch tests. In cases where the penicillin sensitivity was suspected to be of a violent character, more dilute reagents were recommended at the discretion of the individual investigator.
A uniform technique was recommended for the performance of the intradermal tests. Only a minimal amount of testing reagent was to be injected so as to make a barely discernible intradermal bleb. The amount necessary for this injection is about 0.01 to 0.03 cc. It was recognized that the intrepretation of the test results is an important matter. The reactions were to be recorded in terms of (1) the time required for the appearance of a reaction, (2) the size of erythema and (3) the size of whealing. These were to be recorded as actual measurements. Some objective measurement of dermographism was also to be recorded.
It was also contemplated that all patients who were to be treated with penicillin be tested as recommended above, even though they had previously received penicillin with impunity.
A comprehensive clinical history was takan on each patient with particular regard to previous penicillin therapy, and reaction.
In order to properly analyze the data on such a large number of patients, a data processing system was utilized.
Table IV summarizes the skin test results on all patients, without regard to other specific factors. […] It will also be noted that a significant number of patients reacted only to PPL, and another group only to Pen G. Therefore, to detect the maximum number of reactors, both test reagents would be required. A technical problem was classification of the ambiguous or borderline reactors, particularly those showing only erythema. Attempts to correlate the appearance of the erythematous flare without wheal formation with a history of penicillin hypersensitivity were unsuccessful. In some instances, however, erythema without wheal did appear to be associated with hypersensitivity to the antibiotic. The time of development of erythema without wheal varied widely from a few minutes to more than 7 days which also made its importance questionable. as a diagnostic sign. For these reasons erythema alone responses were counted with the negatives. In some instances, however, data will be presented in which erythema without wheal are counted as positive responses (figures appearing in parentheses).

[3] = Group I (675 patients): penicillin Rx, no hypersensitivity, erythema only counted as negative
[4] = Group I (675 patients): penicillin Rx, no hypersensitivity, parentheses: erythema only (ambiguous) counted as positive
[5] = Group II (352 patients): penicillin Rx & hypersensitive, erythema only counted as negative
[6] = Group II (352 patients): penicillin Rx & hypersensitive, parentheses: erythema only (ambiguous) counted as positive
[7] = Group III (70 patients): no penicillin Rx in past, erythema only counted as negative
[8] = Group III (70 patients): no penicillin Rx in past, parentheses: erythema only (ambiguous) counted as positive
[9] = Group IV (56 patients): no data, erythema only counted as negative
[10] = Group IV (56 patients): no data, parentheses: erythema only (ambiguous) counted as positive
[11] = TOTALS (1153 patients), erythema only counted as negative
[12] = TOTALS (1153 patients), parentheses: erythema only (ambiguous) counted as positive
[13] = TOTALS, all patients (1153 tested), erythema only counted as negative
[14] = TOTALS, all patients (1153 tested), parentheses: erythema only (ambiguous) counted as positive
[15] = history of therapy: Multi Courses (177 tested)
[16] = history of therapy: One Course (249 tested)
[17] = history of therapy: One Dose (152 tested)
[18] = history of therapy: TOTALS (578 tested)
[19] = reason for testing: "Penicillin" (240 tested)
[20] = reason for testing: Other Substances (463 tested)
[21] = reaction between 30 minutes and 24 hours post therapy, erythema only counted as negative
[22] = reaction between 30 minutes and 24 hours post therapy, parentheses: erythema only (ambiguous) counted as positive
[23] = reaction more than 24 hours post therapy, erythema only counted as negative
[24] = reaction more than 24 hours post therapy, parentheses: erythema only (ambiguous) counted as positive
[25] = reaction within 30 minutes post therapy, erythema only counted as negative
[26] = reaction within 30 minutes post therapy, parentheses: erythema only (ambiguous) counted as positive
[27] = type of hypersensitivity reaction: Skin (309 tested)
[28] = type of hypersensitivity reaction: Visceral (43 tested)

## CC1(C)S[C@@H]2[C@H](NC(=O)Cc3ccccc3)C(=O)N2[C@H]1C(=O)O [PG, Benzyl Penicillin, reference compound]
[1]
  POSITIVE SKIN TESTS %: 14.3%
  Positive Skin Tests, Number of Patients: 166
[2]; [3]
  Skin Test (+) No.: 24
  Skin Test (+) Percent: 3.6%
  Skin Test (-) No.: 651
  Skin Test (-) Percent: 96.4%
[2]; [4]
  Skin Test (+) No.: 56
  Skin Test (+) Percent: 8.3%
  Skin Test (-) No.: 619
  Skin Test (-) Percent: 91.7%
[2]; [5]
  Skin Test (+) No.: 47
  Skin Test (+) Percent: 13.4%
  Skin Test (-) No.: 305
  Skin Test (-) Percent: 86.6%
[2]; [6]
  Skin Test (+) No.: 65
  Skin Test (+) Percent: 18.5%
  Skin Test (-) No.: 287
  Skin Test (-) Percent: 81.5%
[2]; [7]
  Skin Test (-) No.: 70
  Skin Test (-) Percent: 100.0%
[2]; [8]
  Skin Test (+) No.: 5
  Skin Test (+) Percent: 7.1%
  Skin Test (-) No.: 65
  Skin Test (-) Percent: 92.9%
[2]; [9]
  Skin Test (+) No.: 1
  Skin Test (+) Percent: 1.8%
  Skin Test (-) No.: 55
  Skin Test (-) Percent: 98.2%
[2]; [10]
  Skin Test (+) No.: 3
  Skin Test (+) Percent: 5.3%
  Skin Test (-) No.: 53
  Skin Test (-) Percent: 94.6%
[2]; No reactions (675 tested)
  SKIN TEST RESPONSE No.: 24
  SKIN TEST RESPONSE Percent: 3.6%
[2]; [11]
  Skin Test (-) No.: 1081
  Skin Test (-) Percent: 93.8%
[2]; [12]
  Skin Test (-) No.: 1024
  Skin Test (-) Percent: 88.8%
[2]; [13]
  Skin Test (+) No.: 72
  Skin Test (+) Percent: 6.2% and 6.3%
[2]; [14]
  Skin Test (+) No.: 129
  Skin Test (+) Percent: 11.2%
[2]; delayed (after 24 hours) group
  positive skin tests, patients positive/patients in group: 17/144
[2]; delayed (after 24 hours) group, 144 patients
  positive skin tests, percent of group: 11.8%
[2]; [15]
  Skin Reactions PPL- / PEN G- No.: 10
  Skin Reactions PPL- / PEN G- Percent: 5.6%
[2]; [16]
  Skin Reactions PPL- / PEN G- No.: 8
  Skin Reactions PPL- / PEN G- Percent: 3.2%
[2]; [17]
  Skin Reactions PPL- / PEN G- No.: 17
  Skin Reactions PPL- / PEN G- Percent: 11.2%
[2]; [18]
  Skin Reactions PPL- / PEN G- No.: 35
  Skin Reactions PPL- / PEN G- Percent: 6.1%
[2]; immediate reacting group (within 30 minutes)
  positive skin tests, patients positive/patients in group: 17/56
[2]; immediate reacting group (within 30 minutes), 56 patients
  positive skin tests, percent of group: 30.4%
[2]; immediate reactor group
  percent of skin-test positive patients that would be missed if only this reagent were used as skin test antigen: 45%
[2]; [19]
  Skin Test (+) No.: 24
  Skin Test (+) Percent: 10.0%
[2]; [20]
  Skin Test (+) No.: 9
  Skin Test (+) Percent: 1.9%
[2]; scratch and intradermal skin testing of patients
  safety of skin testing: safe
[2]; [21]
  TOTAL (+) No.: 17
  TOTAL (+) Percent of total positive: 65.4%
[2]; [22]
  TOTAL (+) No.: 21
  TOTAL (+) Percent of total positive: 67.7%
[2]; [23]
  TOTAL (+) No.: 17
  TOTAL (+) Percent of total positive: 51.5%
[2]; reaction more than 24 hours post therapy, erythema only counted as negative, listed as Penicillin G
  TOTAL (+) Percent of total positive: ≤ 51.5%
[2]; [24]
  TOTAL (+) No.: 22
  TOTAL (+) Percent of total positive: 50.0%
[2]; [25]
  TOTAL (+) No.: 17
  TOTAL (+) Percent of total positive: 54.8%
[2]; reaction within 30 minutes post therapy, erythema only counted as negative, listed as Pen G
  TOTAL (+) Percent of total positive: 55%
[2]; reaction within 30 minutes post therapy, erythema only counted as negative, listed as Penicillin G
  TOTAL (+) Percent of total positive: 54.8%
[2]; [26]
  TOTAL (+) No.: 17
  TOTAL (+) Percent of total positive: 47.2%
[2]; [27]
  SKIN TEST RESPONSE No.: 39
  SKIN TEST RESPONSE Percent: 12.6%
[2]; [28]
  SKIN TEST RESPONSE No.: 14
  SKIN TEST RESPONSE Percent: 32.6%
